Test results published in patent US10221139B2, “Inhibitors of histone demethylases” (Gilead Sciences, Inc., priority 2012, dated 2019).

Test system: MCF7 cells
Assay: MCF7 cell proliferation assay (ATPlite)
Type: cell-based
Settings: Homo sapiens, 120 hours
Experimental: MCF7 cells were seeded at 1250 cells/well in 50 μl medium/well in black 96 well plates. Cells were incubated for 24 hours before addition of compound. Compounds were diluted in complete medium (50 μl/well) and added to the plates in duplicates. The total volume of medium in the wells was 100 μl, and the final concentration of DMSO 0.5%. Complete medium used was DMEM with GlutaMAX containing 10% FBS and pen/strep.
120 hours after addition of compounds, the plates were harvested and analyzed by ATPlite 1 Step (Perkin Elmer, cat no 6016739) according to the manufactures recommendation. Briefly, 100 μl ATP lite solution was added to each well, plates were vortexed at 700 rpm 2 minutes, followed by 20 minutes incubation in the dark, and then analyzed for luminescence on EnSpire 2300 Mulitilabel reader (Perkin Elmer). EC50 values were calculated using GraphPad Prism 6.

EC50	SMILES
< 1000 nM	CCN(CCN(C)C)C(=O)CNCc1cc(C(=O)Oc2ccc(C(C)(C)C)cc2)ccn1 [drawing 278, 4-tert-butylphenyl 2-{[({[2-(dimethylamino)ethyl](ethyl)carbamoyl}methyl)amino]methyl}pyridine-4-carboxylate]
< 1000 nM	CCN(CCN(C)C)C(=O)CNCc1cc(C(=O)OC(C)CC(C)=O)ccn1 (centres unmarked) [drawing 279, 4-oxopentan-2-yl 2-{[({[2-(dimethylamino)ethyl](ethyl)carbamoyl}methyl)amino]methyl}pyridine-4-carboxylate]
< 1000 nM	CCN(CCN(C)C)C(=O)CNCc1cc(C(=O)OC(C)CCNC(=O)C(F)(F)F)ccn1 (centres unmarked) [drawing 280, 4-(trifluoroacetamido)butan-2-yl 2-{[({[2-(dimethylamino)ethyl](ethyl)carbamoyl}methyl)amino]methyl}pyridine-4-carboxylate]
< 1000 nM	CCN(CCN(C)C)C(=O)CNCc1cc(C(=O)OC(C)CCN(C)C(=O)C(F)(F)F)ccn1 (centres unmarked) [drawing 281, 4-(2,2,2-trifluoro-N-methylacetamido)butn-2-yl 2-{[({[2-(dimethylamino)ethyl](ethyl)carbamoyl}methyl)amino]methyl}pyridine-4-carboxylate]
< 1000 nM	CCOC(=O)c1ccnc(CNCC(=O)N(CC)CCN(C)C)c1 [drawing 282, ethyl 2-{[({[2-(dimethylamino)ethyl](ethyl)carbamoyl}methyl)amino]methyl}pyridine-4-carboxylate]
< 1000 nM	C=CC(CCNC(=O)C(F)(F)F)OC(=O)c1ccnc(CNCC(=O)N(CC)CCN(C)C)c1 (centres unmarked) [drawing 283, 5-(trifluoroacetamido)pent-1-en-3-yl 2-{[({[2-(dimethylamino)ethyl](ethyl)carbamoyl}methyl)amino]methyl}pyridine-4-carboxylate]
< 1000 nM	C=CC(CCN(C)C(=O)C(F)(F)F)OC(=O)c1ccnc(CNCC(=O)N(CC)CCN(C)C)c1 (centres unmarked) [drawing 284, 5-(2,2,2-trifluoro-N-methylacetamido)pent-1-en-3-yl 2-{[({[2-(dimethylamino)ethyl](ethyl)carbamoyl}methyl)amino]methyl}pyridine-4-carboxylate]
< 1000 nM	CCCCCCCCCCCCCCCC(=O)OCC(COC(=O)CCCCCCCCCCCCCCC)OC(=O)c1ccnc(CNCC(=O)N(CC)CCN(C)C)c1 [drawing 285, 2-(2-{[({[2-(dimethylamino)ethyl](ethyl)carbamoyl}methyl)amino]methyl}pyridine-4-carbonyloxy)-3-(hexadecanoyloxy)propyl hexadecanoate]
< 1000 nM	CCCCCCCCCCCCCCCC(=O)OCC(COC(=O)c1ccnc(CNCC(=O)N(CC)CCN(C)C)c1)OC(=O)CCCCCCCCCCCCCCC (centres unmarked) [drawing 286, 1-(2-{[({[2-(dimethylamino)ethyl](ethyl)carbamoyl}methyl)amino]methyl}pyridine-4-carbonyloxy)-3-(hexadecanoyloxy)propan-2-yl hexadecanoate]
< 1000 nM	CCN(CCN(C)C)C(=O)CNCc1cc(C(=O)OC)ccn1 [drawing 287, methyl 2-{[({[2-(dimethylamino)ethyl](ethyl)carbamoyl}methyl)amino]methyl}pyridine-4-carboxylate]
< 1000 nM	CCN(CCN(C)C)C(=O)CNCc1cc(C(=O)N(C)S(C)(=O)=O)ccn1 [drawing 288, 2-{[({[2-(dimethylamino)ethyl](ethyl)carbamoyl}methyl)amino]methyl}-N-methanesulfonyl-N-methylpyridine-4-carboxamide]
1000 to 50000 nM	CCN(CCN(C)C)C(=O)CNCc1cc(C(=O)N2CCOC2=O)ccn1 [drawing 289, N-[2-(dimethylamino)ethyl]-N-ethyl-2-({[4-(2-oxo-1,3-oxazolidine-3-carbonyl)pyridin-2-yl]methyl}amino)acetamide]
1000 to 50000 nM	CCN(CCN(C)C)C(=O)CNCc1cc(C(=O)OC(CNC(=O)C(F)(F)F)CC(=O)OC(C)C)ccn1 (centres unmarked) [drawing 290, propan-2-yl 3-(2-{[({[2-(dimethylamino)ethyl](ethyl)carbamoyl}methyl)amino]methyl}pyridine-4-carbonyloxy)-4-(trifluoroacetamido)butanoate]
1000 to 50000 nM	CCN(CCN(C)C)C(=O)CNCc1cc(C(=O)OCC(F)(F)F)ccn1 [drawing 292, 2,2,2-trifluoroethyl 2-{[({[2-(dimethylamino)ethyl](ethyl)carbamoyl}methyl)amino]methyl}pyridine-4-carboxylate]
1000 to 50000 nM	CCN(CCN(C)C)C(=O)CNCc1cc(C(=O)Nc2ncco2)ccn1 [drawing 293, 2-{[({[2-(dimethylamino)ethyl](ethyl)carbamoyl}methyl)amino]methyl}-N-(1,3-oxazol-2-yl)pyridine-4-carboxamide]
< 1000 nM	CCN(CCN(C)C)C(=O)CNCc1cc(C(=O)OCCF)ccn1 [drawing 294, 2-fluoroethyl 2-{[({[2-(dimethylamino)ethyl](ethyl)carbamoyl}methyl)amino]methyl}pyridine-4-carboxylate]
< 1000 nM	CCN(CCN(C)C)C(=O)CNCc1cc(C(=O)OCC(F)F)ccn1 [drawing 295, 2,2-difluoroethyl 2-{[({[2-(dimethylamino)ethyl](ethyl)carbamoyl}methyl)amino]methyl}pyridine-4-carboxylate]
